In patent US20140018375A1, “BIOLOGICAL MARKERS PREDICTIVE OF ANTI-CANCER RESPONSE TO EPIDERMAL GROWTH FACTOR RECEPTOR KINASE INHIBITORS” (priority 2005, published 2014):
“Also recorded” adds a separate entry of the source. Like-named read-outs stand apart in the source and are kept apart here.

Columns and labels:
H292 xenograft = experiment: NSCLC xenograft tumor growth inhibition, H292; format: in vivo, mouse; conditions: oral gavage once a day for 14 days
Protocol: (§1) Female CD-1 nu/nu mice (Charles River Laboratories) were implanted with harvested NSCLC tumor cells in a single subcutaneous site on the flank of the mice in the axillary region. Tumors were allowed to grow to 200±50 mm^3, at which time the animals were sorted into treatment groups of 8 animals per group based on weight (±1 g body weight) and tattooed on the tail for permanent identification. Tumor volumes and body weights were determined twice weekly. The tumor volume was determined by measuring in two directions with vernier calipers and calculated using the formula: Tumor volume=(length×width^2)/2. The data were plotted as the % change in mean values of tumor volume and body weight for each group. […]. Tumor growth inhibition studies were dosed by oral gavage once a day for 14 days. Pharmacodynamic studies were dosed by oral gavage for 1-3 days with tumors from 4 control and 4 TARCEVA™ treated animals harvested and snap frozen in liquid nitrogen 4 hours after dosing on Days 1, 2 and 3.

A549 xenograft = experiment: NSCLC xenograft tumor growth inhibition, A549; format: in vivo, mouse; conditions: oral gavage once a day for 14 days
Protocol: as §1

H441 xenograft = experiment: NSCLC xenograft tumor growth inhibition, H441; format: in vivo, mouse; conditions: oral gavage once a day for 14 days
Protocol: as §1

A549 = experiment: Cell-Titer Glo cell viability assay, A549; format: cell-based, human
Protocol: (§2) On day 1, NSCLC cells were plated 3-5×10^4 cells/well in 96 well plates in their normal serum-containing media. […] Manufacturers instructions were followed for the assay. Experiments were conducted in triplicate to at least an n=3. Data was normalized as a percentage inhibition compared to DMSO only control wells and concentration-response analysis was performed using Prizm graphing software.
(§3) The concentration response curves were analyzed in two ways.

H358 xenograft = experiment: NSCLC xenograft tumor growth inhibition, H358; format: in vivo, mouse; conditions: oral gavage once a day for 14 days
Protocol: as §1

Calu6 xenograft = experiment: NSCLC xenograft tumor growth inhibition, Calu6; format: in vivo, mouse; conditions: oral gavage once a day for 14 days
Protocol: as §1

H460 xenograft = experiment: NSCLC xenograft tumor growth inhibition, H460; format: in vivo, mouse; conditions: oral gavage once a day for 14 days
Protocol: as §1

H1703 = experiment: Cell-Titer Glo cell viability assay, H1703; format: cell-based, human; conditions: for EC50: Homo sapiens
Protocol: as §2, §3

Calu6 = experiment: Cell-Titer Glo cell viability assay, Calu6; format: cell-based, human; conditions: for EC50: Homo sapiens
Protocol: as §2, §3

MiaPaca2 = experiment: growth inhibition of pancreatic cell line in vitro, MiaPaca2; format: cell-based
Source text: (§4) We next extended these studies to ask whether these observations would be applicable to other cancer cell types.

H441 = experiment: Cell-Titer Glo cell viability assay, H441; format: cell-based, human
Protocol: as §2, §3

NSCLC cells = experiment: anti-phosphotyrosine capture and LC-MS/MS (iTRAQ) after erlotinib exposure; format: cell-based, human
Protocol: Anti-phosphotyrosine immunoaffinity resins were prepared by covalent coupling to a solid support by standard methods. Freshly prepared immunoaffinity resins were used for each biological experiment to maximize binding and reduce carryover. Briefly, anti-phosphotyrosine antibodies were crosslinked to solid-support and non-covalently bound IgG removed by low pH elution. […] Proteins isolated by anti-phosphotyrosine affinity selection were measured by iTRAQ labeling of tryptic peptides as previously described (Ross et al, (2004) Mol Cell Proteomics 3(12) 1154-1169; Haley et al., 2004). Peptide masses and sequence information were determined by electrospray LC-MS/MS and database searching. Peptides with confidence levels of >=90% with scores of >=20 were considered, after which spectra were inspected manually. […]. Proteins were clustered by temporal log2 protein expression ratios using Euclidian hierarchical methods and self-organizing maps.
Proteins associated with survival signaling and epithelial-mesenchymal cell phenotypes were isolated and measured using multiple experimental approaches, including mass spectrometry. Individual protein abundance, or extent of phosphorylation on tyrosine residues, was compared between different NSCLC tumor lines. Mass spectrometry approaches additionally included cellular fractionation, phosphotyrosine protein-capture and phosphopeptide-capture using four NSCLC model cell lines. The NSCLC lines were chosen to reflect a range of sensitivities to pharmacological EGFR inhibition both in vitro and in xenografts. These NSCLC lines also span both epithelial and mesenchymal-like tumor phenotypes arising from EMT-like transitions occurring during tumor progression. Two MS quantitation approaches were pursued. First, between-cell comparisons were performed where membrane-particulate and cytosolic fractions were isolated and differences in protein abundance measured. In both cases the iTRAQ peptide labeling method was used to allow relative quantitation of proteins isolated under the different biological conditions. […]. Protein samples were proteolytically cleaved with trypsin, separately labeled with isobaric stable isotope mass labels (iTRAQ; Ross et al., 2005; Petti et al. 2005), combined and subjected to LC-MS/MS. Protein identification criteria conformed to the guidelines proposed by Bradshaw et al. (Bradshaw R. A., Burlingame A. L., Carr S., and Aebersold R. (2006) Mol Cell Proteomics 5:787-788).

SW1573 = experiment: Cell-Titer Glo cell viability assay, SW1573; format: cell-based, human
Protocol: as §2, §3

H322 = experiment: Cell-Titer Glo cell viability assay, H322; format: cell-based, human
Protocol: as §2, §3

H358 = experiment: Cell-Titer Glo cell viability assay, H358; format: cell-based, human
Protocol: as §2, §3

H460 = experiment: Cell-Titer Glo cell viability assay, H460; format: cell-based, human; conditions: for EC50: Homo sapiens
Protocol: as §2, §3

BxPC3 = experiment: growth inhibition of pancreatic cell line in vitro, BxPC3; format: cell-based
Source text: as §4

H292 = experiment: Cell-Titer Glo cell viability assay, H292; format: cell-based, human
Protocol: as §2, §3

C#Cc1cccc(Nc2ncnc3cc(OCCOC)c(OCCOC)cc23)c1 [erlotinib, [6,7-bis(2-methoxyethoxy)-4-quinazolin-4-yl]-(3-ethynylphenyl)amine]
% TGI Day 15 (H292 xenograft): 85% | % TGI Day 15 (A549 xenograft): 49% | % TGI Day 15 (H441 xenograft): 60% | Max. Inhibition (%) (A549): 30% | Classification of sensitivity to erlotinib-mediated growth inhibition (A549; A549, in vitro and in xenografts): intermediate sensitivity | EC50 (A549; Homo sapiens, A549, 72 h, read-out: EC50 Half Maximal): 5 µM | % TGI Day 15 (H358 xenograft): 25% | % TGI Day 15 (Calu6 xenograft): 0% | % TGI Day 15 (H460 xenograft): 6% | Max. Inhibition (%) (H1703): 30% | Classification of sensitivity to erlotinib-mediated growth inhibition (H1703; H1703): relatively insensitive | EC50 (H1703; NCI-H1703, 72 h, read-out: EC50 Half Maximal): 7 µM | EC50 (H1703; NCI-H1703, read-out: EC50, growth inhibition in vitro): > 10 µM | Max. Inhibition (%) (Calu6): 46% | Classification of sensitivity to erlotinib-mediated growth inhibition (Calu6; Calu6, in vitro and in xenografts): relatively insensitive | EC50 (Calu6; Calu-6, 72 h, read-out: EC50 Half Maximal): > 10 µM | EC50 (Calu6; Calu-6, read-out: EC50, growth inhibition in vitro): > 10 µM | sensitivity to growth inhibition by erlotinib (MiaPaca2): relatively insensitive | Max. Inhibition (%) (H441): 55% | Classification of sensitivity to erlotinib-mediated growth inhibition (H441; H441, in vitro and in xenografts): Sensitive; also recorded: intermediate | EC50 (H441; Homo sapiens, NCI-H441, 72 h, read-out: EC50 Half Maximal): 2 µM | phosphocapture of the p21-activated kinase PAK2 (NSCLC cells; H1703 cells, 1, 4 and 24 hours): stimulated at all time points | regulation of Actin-like protein-6A and β-actin (NSCLC cells; cells with an epithelial phenotype, within 1 hour of erlotinib exposure (1 μM)): upregulation | regulation of α- and γ-actins and vimentin phosphoproteins (NSCLC cells; mesenchymal-like NSCLC cells, within 1 hour of erlotinib exposure (1 μM)): Down regulation | phosphocapture of Rho-GEF7 (NSCLC cells; mesenchymal-like cells): significant erlotinib-dependent increase | tyrosine phosphorylation for Erk2, ubiquitin and the tyrosine phosphatases SHP-2 and BDP-18 (NSCLC cells; primarily associated with an epithelial cell state): downregulation | Max. Inhibition (%) (SW1573): 25% | EC50 (SW1573; Homo sapiens, SW1573, 72 h, read-out: EC50 Half Maximal): 9 µM | Classification of sensitivity to erlotinib-mediated growth inhibition (SW1573; SW1573): relatively insensitive | Max. Inhibition (%) (H322): 80% | Classification of sensitivity to erlotinib-mediated growth inhibition (H322; H322): Sensitive | EC50 (H322; Homo sapiens, NCI-H322, 72 h, read-out: EC50 Half Maximal): 0.4 µM | Max. Inhibition (%) (H358): 72% | Classification of sensitivity to erlotinib-mediated growth inhibition (H358; H358, in vitro and in xenografts): Sensitive | EC50 (H358; Homo sapiens, NCI-H358, 72 h, read-out: EC50 Half Maximal): 0.6 µM | Max. Inhibition (%) (H460): 30% | Classification of sensitivity to erlotinib-mediated growth inhibition (H460; H460, in vitro and in xenografts): relatively insensitive | EC50 (H460; NCI-H460, 72 h, read-out: EC50 Half Maximal): 5 µM | EC50 (H460; NCI-H460, read-out: EC50, growth inhibition in vitro): > 10 µM | sensitivity to growth inhibition by erlotinib (BxPC3): sensitive | Max. Inhibition (%) (H292): 69% | Classification of sensitivity to erlotinib-mediated growth inhibition (H292; H292, in vitro and in xenografts): Sensitive | EC50 (H292; Homo sapiens, NCI-H292, 72 h, read-out: EC50 Half Maximal): 0.1 µM
